In US20250041387A1, “POLYPEPTIDE SEQUENCE OF KDM6B AND APPLICATION OF KDM6B IN REGULATING AND CONTROLLING FUNCTION OF MESENCHYMAL STEM CELL” (BEIJING STOMATOLOGICAL HOSPITAL, CAPITAL MEDICAL UNIVERSITY, priority 2021, published 2025):
“And” between values parts separate entries of the source, which are not always exact repeats. Equal entries are not always repeated.

Tests used:
[1] = tested on: minipig periodontitis model with bone defect; assay: Minipig periodontitis model, clinical indicators (PD, AL, GR) and intraoral observation; type: in vivo, Wuzhishan minipigs; design: attachment loss (AL) / gingival recession (GR): unit not given here; conditions: for attachment loss (AL) / gingival recession (GR) / probing depth (PD): individual sides
Description: Method: An experimental minipig periodontitis model was established by creating bone defect and ligating silk threads. Specifically, minipigs were conventionally anaesthetized, and extraorally disinfected. The mandibular first permanent molar of the minipig was selected as the experimental tooth, which was subjected to intra-sulcal incision and vertical incision. The mucoperiosteal flap was opened, the mesia-buccal root of the mandibular first permanent molar of the minipig was exposed by bone removal, and a bone defect with a size of 3 mm×5 mm×7 mm was created. That is, 3 mm×5 mm×7 mm of the mesial proximal alveolar bone was removed, and the mesiobuccal root buccal bone plate and distal alveolar bone (3 mm×5 mm, the gingival depth was level with the mesial proximal surface) were removed. The suture in situ was performed. The experimental tooth neck was ligated with silk threads. […] The successful establishment of periodontal bone defect model was verified by CT imaging and clinical examination.
12 Wuzhishan minipigs were used to establish periodontitis model, with a total of 24 sides, which were randomly divided into 3 groups. Each side was injected with a drug at an amount of 60 μl. Group 1: flap surgery with scraping+injection of sterile saline after modeling (untreated control group); group 2: flap surgery with scraping+injection of control polypeptide after modeling (control group); group 3: flap surgery with scraping+injection of bioactive polypeptide 114 after modeling (experimental group).
(§1) Drug injection treatment was performed 4 weeks after the modeling operation. The effect of bioactive polypeptide 114 on the regeneration and repair capacity of defected tissues mediated by stem cells in minipigs of periodontitis was assessed by comparing the clinical indicators and imaging examination after modeling (−4 w), 4 weeks after modeling without drug injection (0 w) and 3 months after drug treatment (12 w).
Clinical indicators (PD, AL and GR) detection and CT imaging were performed before the experiment, after modeling (−4 w) and 3 months after treatment (12 w).
Periodontal probing depth (PD): The depth of the periodontal pocket on the mesiobuccal side of the tooth was recorded at a probing pressure of 20-25 g.
Gingival recession (GR): The distance from the cemento-enamel junction to the gingival margin was measured using a periodontal probe. If there was gingival recession, the cementoenamel junction was exposed, and the gingival margin was located at the root of the cementoenamel junction, then the distance between the two was recorded as a positive value; if there was no gingival recession, the gingival margin was located at the crown of the cementoenamel junction, then the distance between the two was recorded as a negative value.
Attachment loss (AL): The degree of attachment loss was determined by subtracting GR from the periodontal pocket depth. If the two numbers were subtracted to zero, or the cementoenamel junction cannot be detected, it means there was no attachment loss. If the gingival recession caused the gingival margin to locate at the root of the cementoenamel junction, the two numbers were added to obtain the degree of the attachment loss. • 2.1 Probing depth (PD) was shown in Table 17 and FIG. 10.

[2] = tested on: defected palatal mucosa of mice; assay: Palatal mucosa defect in mice; type: in vivo, Balb/c mice; conditions: for area of unhealed defected palatal mucosa: individual mice, FIG. 16
[3] = tested on: OVX mouse of osteoporosis model; assay: OVX mouse osteoporosis model, micro-CT of distal femur; type: in vivo, C57BL/6 mice; conditions: OVX mice, 10 mg/kg intraperitoneally for 3 months from 6 weeks after ovary removal, individual mice, FIG. 19B, listed as 114 peptide
Description: Twenty five 3-month-old C57BL/6 mice were purchased from Vital River and randomly divided into sham operation group, OVX group, PBS group, control peptide group and 114 peptide group, with five mice in each group. The osteoporosis model was established by removing bilateral ovaries in OVX, PBS, control peptide and 114 peptide groups. In the sham operation group, ovaries were not removed. 6 weeks after ovary removal, the mice were intraperitoneally injected with control peptide and peptide 114 at 10 mg/kg for continuous 3 months, and then sacrificed. For the distal femur, the left distal femur of each mouse was scanned ex vivo using a micro-CT system. Each segment of bone trabeculae was selected for segmentation, and subjected to 3D reconstruction. BMD was calculated.

[4] = tested on: minipig periodontitis model with bone defect; assay: Minipig periodontitis model, new bone volume by CBCT three-dimensional reconstruction; type: in vivo, Wuzhishan minipigs; conditions: week 12 after injection, 60 μl per side; individual sides; FIG. 9; listed as 114 peptide
Description: Method: An experimental minipig periodontitis model was established by creating bone defect and ligating silk threads. Specifically, minipigs were conventionally anaesthetized, and extraorally disinfected. The mandibular first permanent molar of the minipig was selected as the experimental tooth, which was subjected to intra-sulcal incision and vertical incision. The mucoperiosteal flap was opened, the mesia-buccal root of the mandibular first permanent molar of the minipig was exposed by bone removal, and a bone defect with a size of 3 mm×5 mm×7 mm was created. That is, 3 mm×5 mm×7 mm of the mesial proximal alveolar bone was removed, and the mesiobuccal root buccal bone plate and distal alveolar bone (3 mm×5 mm, the gingival depth was level with the mesial proximal surface) were removed. The suture in situ was performed. The experimental tooth neck was ligated with silk threads. […]
as §1, with “w). […]” for “w).”

[5] = 0 w, 4 weeks after modeling without drug injection, listed as 114 peptide
[6] = 12 w after injection, listed as 114 peptide

FITC-(Acp)-ADLTISHCAADVVRAYGRKKRRQRRR [peptide 114]
attachment loss (AL) [1, 5]: 9.5 (3×) and 9 and 12 (2×)
gingival recession (GR) [1, 5]: 2.5 (3×) and 1 (2×) and 0.5 and 3 and 4.5
probing depth (PD) [1, 5]: 7.5 (3×) and 8.5 and 7 and 8 and 9 (2×)
attachment loss (AL) [1, 6]: significantly lower and 3 and 2.5 and 1.5 and 4
gingival recession (GR) [1, 6]: significantly lower and 0.5 and 1
probing depth (PD) [1, 6]: significantly lower and 2.5 and 2 and 0.5 and 1 and 3
mesenchymal stem cells-mediated regeneration of periodontal tissue ([1]; CT imaging, bone volume analysis and clinical examination): promoted
restoration effect of soft tissues (intraoral images) ([1]; week 12 after injection, FIG. 14): better
probing depth (PD) ([1]; −4 w, before drug injection, FIG. 10, listed as 114 peptide): 1 (7×) and 2
gingival recession (GR) ([1]; −4 w, before drug injection, FIG. 12): 0
healing of defected palatal mucosa (observation) ([2]; compared to PBS group and control peptide group, FIG. 15): obviously healed
area of unhealed defected palatal mucosa ([2]; day 14): 5.782 and 7.254 and 8.231 and 5.52 and 6.401
area of unhealed defected palatal mucosa ([2]; day 21): 2.259 and 0.3319 and 1.964 and 2.33 and 2.213
bone density (BMD) of femoral bone trabeculae [3]: significant up-regulation and 0.1440 and 0.1242 and 0.1416 and 0.1071 and 0.1137
new bone formation volume [4]: better and higher and 101.99 mm^3 and 80.68 mm^3 and 79.08 mm^3 and 80.48 mm^3 and 76.48 mm^3 and 85.49 mm^3
